Results published in patent US20230250108A1, “TETRAHYDROISOQUINOLINE COMPOUNDS AND USE THEREOF” (JIANGSU SIMCERE PHARMACEUTICAL CO., LTD., priority 2020, published 2023).

Assays:
[1] = system: SDMA in Z-138 cells; assay: Inhibitory activity on SDMA in cells (immunofluorescent assay); assay type: cell-based; conditions: Homo sapiens, 48 h, 2 days, read-out: Inhibition of SDMA in cells IC50
Source text: Materials and cells: Z-138 cells were purchased from ATCC (USA); IMDM medium and penicillin-streptomycin were purchased from Sigma PLC. (USA); horse serum was purchased from Hyclone (USA); Hoechst antibodies were purchased from Invitrogen (USA); Alexa Fluor 488 goat anti-rabbit IgG antibodies were purchased from Invitrogen (USA); Anti-dimethyl-Arginine symmetric (SYM11) antibodies were purchased from Merck & Co., Inc. (USA); DPBS was purchased from Gibco (USA); Nonfat Dry milk was purchased from Cell Signaling Technology (USA); paraformaldehyde was purchased from Beijing Solarbio Science & Technology Co., Ltd.; 384-well plate and Echo 550 Liquid Handler were purchased from Labcyte Inc. (USA); and an ImageXpress Nano was purchased from Molecular Devices (USA).
Cell culture: Z-138 cells were cultured in an IMDM culture solution containing 10% Horse serum+1% penicillin−streptomycin at 37° C., 5% CO2. Cells in logarithmic growth phase were suitable for the experiment.
Immunofluorescent assay: The effects of the compounds on SDMA in Z-138 cells were detected by using immunofluorescence. The cells were adjusted to the concentration of 1*10^5/mL and 40 μL was inoculated in each well of the 384-well plate (4000/well) and equilibrated for 10-15 minutes at 37° C., 5% CO2. The compound was added into a 384-well plate by using the Echo 550 Liquid Handler with the final concentration of 0-300 nM (initial concentration: 300 nM, 3-fold dilution, for 10 points), and the DMSO content was 0.1%. The cell plate was placed at 37° C., 5% CO2 and incubated for 2 days. 40 μL of 8% paraformaldehyde was added into each well and incubated at room temperature for 30 minutes. The supernatant was discarded, the plate was washed with DPBS, and 40 μL of 0.5% PBST (phosphate buffer with Tween) was added into each well and incubated at room temperature for 60 minutes. The supernatant was discarded, the plate was washed with 0.05% PBST, and 40 μL of a blocking solution (1% Nonfat milk in 0.05% PBST) was added into each well and incubated at room temperature for 60 minutes. The supernatant was discarded, and 20 μL of the primary antibody (SYM11, diluted with a blocking solution at 1:500) was added into each well and maintained at 4° C. overnight. The supernatant was discarded, the plate was washed with 0.05% PBST, 20 μL of the secondary antibody (Alexa Fluor 488 goat anti-rabbit and Hoechst, diluted with a blocking solution at 1:1000 and 1:5000, respectively) was added to each well and incubated at room temperature for 60 minutes. The supernatant was discarded, the plate was washed with 0.05% PBST, and the fluorescent intensity was detected with ImageXpress Nano.

[2] = system: Z-138 subcutaneous tumor models; assay: In vivo drug efficacy experiment in mice, Z-138 subcutaneous tumor model
Source text: Experimental materials: Z138 cells were purchased from ATCC; IMDM culture solution, penicillin-streptomycin and 0.25% trypsin-EDTA were purchased from Gibco; horse serum and PBS were purchased from Hyclone; and Matrigel was purchased from Corning.
Animal information: CB17-SCID mice (female, 6-7 weeks, body weight: about 14-20 g) were purchased from Shanghai Lingchang Biotechnology Co., Ltd. The mice were fed in SPF environment and each cage position was individually ventilated. All animals had free access to standard certified commercial laboratory food and water.
Cell culture: Human mantle cell lymphoma Z-138 cell lines were cultured in vitro and the culture conditions involve: IMDM (cell culture solution) supplemented with 10% horse serum and 1% penicillin-streptomycin solution, 37° C., 5% CO2 incubator. Conventional digestion treatment with 0.25% trypsin-EDTA digestion solution was carried out twice a week for passage. When the cell saturation was 85%-90%, and the number reached the requirement, the cells were collected and counted.
Cell inoculation: 0.1 ml/(containing 1×10^7) Z-138 cell suspension (PBS Matrigel=1:1) was inoculated subcutaneously on the right back of each mouse. At day 18 post inoculation, when the average tumor volume measured has reached about 125 mm^3, grouping and administration were performed by using the randomized stratification and grouping method based on the tumor volume and animal body weight. PBS was a phosphate buffer free of Ca and Mg ions, and Matrigel was a matrix gel.
Administration: Compound 002 was administered at the doses of 1.5 mg/kg, 5 mg/kg, or 15 mg/kg, PO, twice daily (BID)×3 weeks. 6 mice per group.
The diameter of the tumor was measured with vernier calipers twice a week. The calculation formula of tumor volume was V=0.5a×b2, wherein a and b represented the long and short diameters of the tumor, respectively. The body weights of the mice were weighed twice a week.
The tumor-inhibiting efficacy of the compound was evaluated using tumor growth inhibition (TGI) (%).
TGI (%)=[(1−(average tumor volume at the end of administration in a certain treatment group−average tumor volume at the beginning of administration in the treatment group)/(average tumor volume at the end of administration in the solvent control group−average tumor volume at the beginning of administration in the solvent control group)]×100%.

[3] = Hepatocellular metabolic stability test, human hepatocytes
Source text: (§1) Experimental materials: Human hepatocytes were purchased from Biopredic; mouse hepatocytes were purchased from BioIVT; acetonitrile and methanol were purchased from Merck & Co., Inc.; AOPI dyes were purchased from Nexcelom; dexamethasone was purchased from NIFDC; DMSO was purchased from Beijing Solarbio Science & Technology Co., Ltd.; DPBS (10×), GlutaMAX™-1 (100×) and recombinant human insulin were purchased form Gibco by Life Technologies; fetal bovine serum was purchased from Corning; formic acid was purchased from DIKMAPURE; Isotonic Percoll was purchased from GE Healthcare; alprazolam was purchased from Supelco; caffeine was purchased from ChromaDex.inc; and HEPES, tolbutamide and Williams' Medium E were purchased from Sigma.
(§2) The powder of a test substance was formulated with DMSO into a stock solution with a high concentration, which was diluted to a working solution of 100 μM with acetonitrile prior to use. The final concentration of the test substance was 1 μM.
(§3) 49.5 mL of Williams'E Medium and 0.5 mL of GlutaMAX were mixed as an incubation media. Hepatocyte thawing media and incubation media were placed in a 37° C. water-bath and pre-heated for at least 15 minutes prior to use. A tube of hepatocytes stored at an ultra-low temperature was taken and the hepatocytes were ensured to be at a frozen state at a low temperature prior to thawing. The hepatocytes were rapidly placed in a 37° C. water-bath and gently shaken until all the ice crystals were dispersed, and then after 70% ethanol was sprayed, the hepatocytes were transferred to a biosafety cabinet. The content of the tube was poured into a centrifugal tube containing 50 mL of thawing media and centrifuged at 100 g for 10 minutes. After centrifugation, the thawing media was aspirated, and a sufficient amount of incubation media was added to obtain a cell suspension with a cell density of about 1.5×10^6 cells/mL. The hepatocytes were counted, and the viable cell density was determined using Cellometer Vision, and the survival rate of the hepatocytes must be higher than 75%. The hepatocyte suspension was diluted by using the incubation media to a viable cell density of 0.5×10^6 viable cells/mL.
(§4) 247.5 μL of viable cell (human hepatocytes or mouse hepatocytes) suspension or media were transferred into a 96-well deep-well plate, and the deep-well plate was placed in a vortex incubator and pre-heated for 10 minutes. Incubation of all the samples was performed in parallel duplicate. Test substance (2.5 μL, 100 μM) was added into each well to start the reaction and the deep-well plate was placed in the vortex incubator again. The samples were incubated, and 25 μL of the suspension was taken at 0, 15, 30, 60, 90 and 120 minutes, respectively. 125 μL of acetonitrile containing internal standard (100 nM alprazolam, 200 nM caffeine, and 100 nM tolbutamide) was added to terminate the reaction. The mixture was vortexed for 10 minutes and centrifuged at 3220 g, 4° C. for 30 minutes. After centrifugation, 100 μL of the supernatant was transferred into the loading plate and 150 μL of pure water was added and mixed uniformly for LC-MS/MS analysis.
(§5) All the data calculation was performed by the Microsoft Excel software. The peak area was detected by extracting the ion chromatogram. The in vitro half-life (t1/2) of the parent drug was detected by performing linear fitting of the natural logarithm of elimination percent of the parent drug and time.
(§6) The in vitro half-life (t1/2) was calculated by means of the slope:

[4] = Hepatocellular metabolic stability test, mouse hepatocytes
Source text: as §1, §2, §3, §4, §5, §6

[5] = tested doses 1.5, 5, 15 mg/kg BID

CCN1CCN(C[C@@H](O)[C@@H]2Cc3ccccc3CN2)C(=O)c2ccc(C(=O)N3CCC4(CC3)CC(OC)C4)cc21.Cl [Compound 002, 1-ethyl-4-((R)-2-hydroxy-2-((S)-1,2,3,4-tetrahydroisoquinolin-3-yl)ethyl)-8-(2-methoxy-7-azaspiro[3.5]nonane-7-carbonyl)-1,2,3,4-tetrahydro-5H-benzo[e][1,4]diazepin-5-one hydrochloride]
IC50 [1]: 1.4 nM
TGI ([2]; 1.5 mg/kg PO BID x 3 weeks): 36.0%
Average tumor volume ([2]; 1.5 mg/kg PO BID, 0 Day): 125 mm^3
Average tumor volume ([2]; 1.5 mg/kg PO BID, 4 Day): 151 mm^3
Average tumor volume ([2]; 1.5 mg/kg PO BID, 7 Day): 203 mm^3
Average tumor volume ([2]; 1.5 mg/kg PO BID, 11 Day): 374 mm^3
Average tumor volume ([2]; 1.5 mg/kg PO BID, 14 Day): 436 mm^3
Average tumor volume ([2]; 1.5 mg/kg PO BID, 18 Day): 567 mm^3
Average tumor volume ([2]; 1.5 mg/kg PO BID, 21 Day): 689 mm^3
TGI ([2]; 5 mg/kg PO BID x 3 weeks): 47.8%
Average tumor volume ([2]; 5 mg/kg PO BID, 0 Day): 124 mm^3
Average tumor volume ([2]; 5 mg/kg PO BID, 4 Day): 157 mm^3
Average tumor volume ([2]; 5 mg/kg PO BID, 7 Day): 197 mm^3
Average tumor volume ([2]; 5 mg/kg PO BID, 11 Day): 281 mm^3
Average tumor volume ([2]; 5 mg/kg PO BID, 14 Day): 310 mm^3
Average tumor volume ([2]; 5 mg/kg PO BID, 18 Day): 452 mm^3
Average tumor volume ([2]; 5 mg/kg PO BID, 21 Day): 585 mm^3
TGI ([2]; 15 mg/kg PO BID x 3 weeks): 112.5%
Average tumor volume ([2]; 15 mg/kg PO BID, 0 Day): 126 mm^3
Average tumor volume ([2]; 15 mg/kg PO BID, 4 Day): 140 mm^3
Average tumor volume ([2]; 15 mg/kg PO BID, 7 Day): 113 mm^3
Average tumor volume ([2]; 15 mg/kg PO BID, 11 Day): 59 mm^3
Average tumor volume ([2]; 15 mg/kg PO BID, 14 Day): 34 mm^3
Average tumor volume ([2]; 15 mg/kg PO BID, 18 Day): 18 mm^3
Average tumor volume ([2]; 15 mg/kg PO BID, 21 Day): 16 mm^3
Death in mice [2, 5]: nor did they cause any death in mice
Effect on body weights of the mice [2, 5]: do not significantly affect the body weights of the mice
Tolerability [2, 5]: the mice can tolerate the doses
Effect on tumor growth ([2]; twice daily at 1.5 mg/kg, 5 mg/kg and 15 mg/kg): significant inhibitory effects on tumor growth
Effect on tumor size ([2]; twice daily at 15 mg/kg): effect of shrinking tumor
half-life at 1 μM [3]: 4.21 h
half-life at 1 μM [4]: 1.58 h
